Columns and labels:
[1] = tested on: β-catenin nuclear translocation in SH-SY5Y cells; assay: β-catenin translocation assay; assay type: cell-based; conditions: HEK-huTau GSK3α vs SH-SY5Y β-catenin
Protocol: SH-SY5Y cells were seeded into a 96-well CellCarrier Ultra (Perkin Elmer) plate at a density of 1×10^5 cells/ml in complete DMEM. Sixteen hours following plating, media was changed to DMEM with 2% serum, and compound was added with a D300e Digital Dispenser (Tecan) for an incubation time of six hours. After compound incubation, media was removed, and cells were fixed with 4% PFA for 10 minutes at room temperature. Each well was washed three times with PBS-T and then blocked with buffer (1×PBS with 5% Normal Goat Serum and 0.3% Triton X-100) for 30 minutes at room temperature. β-Catenin primary antibody (Cell Signaling #8480) was added at 1:500 dilution in blocking buffer and the cells were allowed to incubate in primary overnight at 4° C. The following day, primary antibody was removed, each well was washed three times with PBS-T, and secondary antibody (1:2000 anti-rabbit AlexaFluor Plus 488 and 1:10,000 Hoechst 33342) was added and allowed to incubate for 60 minutes at room temperature protected from light. After one-hour, secondary antibody was removed and wells were washed four times with PBS-T before imaging on the Opera Phenix. Sixteen fields per well were imaged with a 20× water lens.
Images were quantified in the Columbus Image Data Storage and Analysis software. Cells were identified using the Hoechst nuclear stain to identify individual nuclei. Intensity of the nuclear stain was also used to determine cell viability (Viable cells <30% CV of Hoechst Intensity)

[2] = tested on: 251 unique detected kinases in rat brain; assay: In vivo kinome selectivity (chemoproteomics, kinobeads); conditions: 60 mg/kg
Protocol: (§1) Chemoproteomics competition was used to evaluate inhibitor selectivity and target engagement in vivo. Frozen cortexes were prepared for homogenization with 1.2 mL of Lysis Buffer (50 mM Tris-HCl, 0.8% NP-40 ((octylphenoxy poly(ethyleneoxy) ethanol)), 5% glycerol, 150 mM NaCl, 1.5 mM MgCl2, 25 mM NaF, 1 mM sodium vanadate, 1 mM DTT, pH 7.5 and supplemented with protease inhibitors). Tissues were homogenized in FastPrep-24 5G instrument at maximum oscillations for 20 seconds. The resulting brain homogenate was clarified by centrifugation for 1 h at 145 000 g, 4° C. The protein concentration of the supernatant was determined by BCA assay and each sample was diluted to final concentration of 5 mg/mL with lysis buffer. […] The dry peptide mixture was reconstituted in 15 μL of 0.1% trifluoro acetic acid and analyzed on ID nanoLC-MS/MS platform using a standardized 140 min method. Peptides were separated on an Easy-Spray column (75 μm×50 cm, PepMAP C18, 1.9 μm) at 250 nL/min, analyzed on a QExactive HF mass spectrometer at data dependent acquisition (DDA) mode with MS1 at 60,000 and MS2 at 15,000 resolution, respectively. […]
To investigate whether the effects of 837646 on tau phosphorylation were solely the result of GSK3 inhibition, additional kinases detected by mass spectrometry for compound engagement in the same brain lysates were profiled. […]

[3] = molecular target: GSK3α (Rattus norvegicus (Rat), UniProt P18265); assay: In vivo target engagement assay (chemoproteomics, kinobeads), GSK3α; conditions: P10 rat cortex
GSK3α, sequence (P18265 whole entry): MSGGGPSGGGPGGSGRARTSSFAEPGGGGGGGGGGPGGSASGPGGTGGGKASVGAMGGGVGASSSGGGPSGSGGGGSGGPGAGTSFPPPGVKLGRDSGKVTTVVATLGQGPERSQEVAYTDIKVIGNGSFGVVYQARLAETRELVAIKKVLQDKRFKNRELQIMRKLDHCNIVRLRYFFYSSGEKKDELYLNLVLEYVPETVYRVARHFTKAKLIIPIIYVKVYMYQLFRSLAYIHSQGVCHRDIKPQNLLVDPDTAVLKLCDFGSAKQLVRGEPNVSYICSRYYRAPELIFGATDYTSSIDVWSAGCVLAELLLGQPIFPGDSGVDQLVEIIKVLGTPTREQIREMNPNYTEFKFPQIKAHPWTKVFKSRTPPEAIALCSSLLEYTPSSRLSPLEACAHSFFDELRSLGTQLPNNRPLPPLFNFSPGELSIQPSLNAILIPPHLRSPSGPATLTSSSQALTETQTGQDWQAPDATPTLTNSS
Protocol: as §1
To measure direct target engagement of the compound for both GSK3α and GSK3β competitive chemoproteomics methodology was used. […] Enriched proteins were analyzed by liquid chromatography coupled with tandem mass spectrometry. […]

In the case of `CCC1(c2cccc(C(F)(F)F)c2)C2=C(Nc3n[nH]cc31)C(F)C(C)(C)CC2=O` (single isomer, unassigned) [Compound 837646, 4-ethyl-8-fluoro-7,7-dimethyl-4-(3-(trifluoromethyl)phenyl)-2,4,6,7,8,9-hexahydro-5H-pyrazolo[3,4-b]quinolin-5-one], the “window between potency on tau phosphorylation by GSK3α and concentrations affecting β-catenin stabilization” value [1] is reported as greater than 20 fold, the “number of off-target kinases with target engagement greater than 70%” value ([2]; Cmax, of 251 unique kinases, apart from GSK3) is reported as 6 and the “number of kinases with target engagement greater than 70% (including GSK3α)” value ([2]; out of 251 unique detected kinases) is reported as 7. The “target engagement at GSK3α, 24 hr” value ([3]; 24 hr, both 60 mg/kg and 20 mg/kg) was roughly 50% and the “target engagement for GSK3α, 3 hours” value ([3]; three hours after dosing (Cmax, 60 mg/kg)) was “over 90%”.

Reference: patent US20250313563A1, “GLYCOGEN SYNTHASE KINASE 3 INHIBITORS AND USES THEREOF” (The Broad Institute, Inc., priority 2022, published 2025)
